We go through 1 compound from article PMC4421829, “Design, Synthesis and Inhibitory Activity of Photoswitchable RET Kinase Inhibitors” (Scientific Reports, 2015).

For the experiment, the target named is T1, RET (Homo sapiens, UniProt P07949).
T1 construct: RET tyrosine kinase domain (human recombinant RET expressed in Sf9 insect cells)
T1 sequence (P07949 724-1016 limits assumed): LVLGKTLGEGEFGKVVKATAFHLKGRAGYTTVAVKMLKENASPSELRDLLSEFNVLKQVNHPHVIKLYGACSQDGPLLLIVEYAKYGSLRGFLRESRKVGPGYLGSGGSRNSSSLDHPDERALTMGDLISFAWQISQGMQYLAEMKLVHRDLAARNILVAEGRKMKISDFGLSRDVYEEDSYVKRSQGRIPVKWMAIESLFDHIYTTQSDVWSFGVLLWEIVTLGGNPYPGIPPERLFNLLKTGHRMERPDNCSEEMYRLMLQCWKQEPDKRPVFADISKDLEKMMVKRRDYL
Description: luminescent ATP-to-ADP conversion kinase assay (IGF1Rtide substrate, […] ATP), in the dark. In kind it is biochemical.

A word on the IC50: it is the point on the concentration scale where inhibition reaches its midpoint. Lower therefore signals greater potency in that assay. For the compound `CC(C)n1nc(/N=N/c2ccccc2)c2c(N)ncnc21` [compound 4, E-4], half-maximal inhibition (IC50) required 150 nM.
